Patent US9453062B2, “Glucose dependent insulinotropic polypeptide analogs, pharmaceutical compositions and use thereof” (Beijing Hanmi Pharmaceutical Co., Ltd., priority 2011, dated 2016)
Where a SMILES comes first, the peptide text is derived from it. Bridges are numbered along the chain shown (N, C = ends). [ ]: non-standard residue; d: D form. The star is where a group is joined. Palmitoyl = CCCCCCCCCCCCCCCC(=O)*; Aib = CC(C)(N)C(=O)O

Assays:
hGLP-1R = target: T1, hGLP-1R (Homo sapiens, UniProt P43220); assay: hGLP-1R-mediated cAMP induction assay in CHO cell line; assay type: cell-based; settings: Table 3; for EC50: CHO hGLP1R cells; for GLP-1 Receptor Relative Potency: against native GLP-1;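 as to all read-outs here: CHO cells expressing human GLP-1R, treated 30 min at 37 °C, intracellular cAMP measured by competitive fluorescent immunoassay and converted via a cAMP standard curve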
T1 construct: expressed in transfected cells; host or cells: CHO
T1 sequence (P43220 24-463): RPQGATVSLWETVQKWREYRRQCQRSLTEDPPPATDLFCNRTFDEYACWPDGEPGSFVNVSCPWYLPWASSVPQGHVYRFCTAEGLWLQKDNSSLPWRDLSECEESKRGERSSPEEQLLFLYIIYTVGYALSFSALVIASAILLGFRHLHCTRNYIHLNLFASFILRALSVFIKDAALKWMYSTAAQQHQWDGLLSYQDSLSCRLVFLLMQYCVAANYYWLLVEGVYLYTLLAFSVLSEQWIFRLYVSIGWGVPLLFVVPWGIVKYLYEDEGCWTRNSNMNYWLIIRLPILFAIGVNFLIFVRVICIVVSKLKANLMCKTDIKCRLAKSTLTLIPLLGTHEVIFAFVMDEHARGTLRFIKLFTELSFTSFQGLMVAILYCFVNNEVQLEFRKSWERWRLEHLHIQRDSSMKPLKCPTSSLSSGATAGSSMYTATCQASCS
Source text: (§1) The cAMP in the sample or standard competes with horseradish peroxidase (HRP)-labeled cAMP conjugate for binding sites on the anti-cAMP antibodies. In the absence of cAMP, most of the HRP-cAMP conjugate is bound to the antibody. Increasing concentrations of cAMP competitively decrease the amount of bound conjugate, thus decreasing measured HRP activity.
(§2) Assay kit: CatchPoint™ Cyclic-AMP Fluorescent Assay Kit (Molecular Devices, Product # R8088)
Cell lines: CHO hGLP1R, CHO hGIPR
(§3) Cell seeding: CHO hGLP1R or CHO hGIPR cells: 10,000 cells/well/100 uL at 37° C. 5% CO2 overnight.
(§4) Gently aspirate off media and wash the cells with KRBG Buffer, 100 uL/well.
(§5) Incubate the plate for 10 min at room temperature. Then add the KRBG buffer with 3× final concentration of the tested samples (5-foled series diluted from 5,000 nM), 50 uL/well. Incubate the plate at 37° C. 5% CO2 for 30 min.
(§6) Add 50 uL of Lysis buffer to each well and put the plate on a shaker for 10 min.
(§7) Place 40 uL of samples and analyze in appropriate wells. And test the cAMP concentration in each sample by following the manufacture's instruction.
(§8) Detect the fluorescence signal at Ex: 490 nm and Em: 530 nm. Transfer the FI signal to cAMP concentration by the cAMP standard curve. The Dose-response curve and EC50 were obtained by logistic fitting of Origin 8.

hGIPR = target: T2, hGIPR (Homo sapiens, UniProt P48546); assay: hGIPR-mediated cAMP induction assay in CHO cell line; assay type: cell-based; settings: Table 3; for EC50: CHO hGIPR cells; for GIP Receptor Relative Potency: against native GIP
T2 construct: expressed in transfected cells; host or cells: CHO
T2 sequence (P48546 22-466): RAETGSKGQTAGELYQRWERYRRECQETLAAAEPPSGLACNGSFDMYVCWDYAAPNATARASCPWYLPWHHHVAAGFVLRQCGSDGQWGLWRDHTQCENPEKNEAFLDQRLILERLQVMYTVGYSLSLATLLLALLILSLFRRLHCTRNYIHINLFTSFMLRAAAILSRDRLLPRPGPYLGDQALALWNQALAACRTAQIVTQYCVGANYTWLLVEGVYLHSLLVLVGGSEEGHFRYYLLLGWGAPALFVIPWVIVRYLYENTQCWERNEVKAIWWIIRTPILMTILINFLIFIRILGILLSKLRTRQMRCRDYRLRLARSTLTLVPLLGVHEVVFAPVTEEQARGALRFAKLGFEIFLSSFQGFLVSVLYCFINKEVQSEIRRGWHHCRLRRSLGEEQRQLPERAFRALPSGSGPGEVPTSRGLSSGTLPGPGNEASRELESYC
Source text: as §1, §2
Cell lines: CHO hGLP1R, CHO hGIPR
as §3, §4, §5, §6, §7, §8

SMILES	EC50 (hGLP-1R)	GLP-1 Receptor Relative Potency (hGLP-1R)	EC50 (hGIPR)	GIP Receptor Relative Potency (hGIPR)
CCCCCCCCCCCCCCCC(=O)NCCCC[C@H](NC(=O)[C@H](CO)NC(=O)[C@@H]1CCCN1C(=O)[C@@H]1CCCN1C(=O)[C@@H]1CCCN1C(=O)[C@H](C)NC(=O)CNC(=O)[C@H](CO)NC(=O)[C@H](CO)NC(=O)[C@@H]1CCCN1C(=O)CNC(=O)CNC(=O)[C@H](CCCCN)NC(=O)[C@@H](NC(=O)[C@H](CC(C)C)NC(=O)[C@H](Cc1c[nH]c2ccccc12)NC(=O)[C@H](C)NC(=O)[C@@H](NC(=O)[C@H](Cc1ccccc1)NC(=O)[C@H](CCC(=O)O)NC(=O)[C@H](CCCNC(=N)N)NC(=O)[C@@H](NC(=O)[C@H](C)NC(=O)[C@H](CCC(=O)O)NC(=O)[C@H](CCCCN)NC(=O)[C@H](CCC(=O)O)NC(=O)[C@H](CCSC)NC(=O)[C@H](Cc1ccc(O)cc1)NC(=O)[C@@H](NC(=O)[C@H](CO)NC(=O)[C@H](Cc1ccc(O)cc1)NC(=O)[C@H](CC(=O)O)NC(=O)[C@H](CO)NC(=O)[C@@H](NC(=O)[C@H](Cc1ccccc1)NC(=O)[C@@H](NC(=O)CNC(=O)[C@H](CCC(=O)O)NC(=O)C(C)(C)NC(=O)[C@@H](N)Cc1ccc(O)cc1)[C@@H](C)O)[C@@H](C)O)[C@@H](C)CC)C(C)C)[C@@H](C)CC)C(C)C)C(N)=O [Compound 068]	0.169 nM	566	0.037 nM	38.9
CC[C@H](C)[C@H](NC(=O)[C@H](Cc1ccccc1)NC(=O)[C@H](CCC(=O)O)NC(=O)[C@H](CCCNC(=N)N)NC(=O)[C@@H](NC(=O)[C@H](C)NC(=O)[C@H](CCC(=O)O)NC(=O)[C@H](CCCCN)NC(=O)[C@H](CCC(=O)O)NC(=O)[C@H](CCSC)NC(=O)[C@H](Cc1ccc(O)cc1)NC(=O)[C@@H](NC(=O)[C@H](CO)NC(=O)[C@H](Cc1ccc(O)cc1)NC(=O)[C@H](CC(=O)O)NC(=O)[C@H](CO)NC(=O)[C@@H](NC(=O)[C@H](Cc1ccccc1)NC(=O)[C@@H](NC(=O)CNC(=O)[C@H](CCC(=O)O)NC(=O)C(C)(C)NC(=O)[C@@H](N)Cc1ccc(O)cc1)[C@@H](C)O)[C@@H](C)O)[C@@H](C)CC)C(C)C)C(=O)N[C@@H](C)C(=O)N[C@@H](Cc1c[nH]c2ccccc12)C(=O)N[C@@H](CC(C)C)C(=O)N[C@H](C(=O)N[C@@H](CCCCN)C(=O)NCC(=O)NCC(=O)N1CCC[C@H]1C(=O)N[C@@H](CO)C(=O)N[C@@H](CO)C(=O)NCC(=O)N[C@@H](C)C(=O)N1CCC[C@H]1C(=O)N1CCC[C@H]1C(=O)N1CCC[C@H]1C(=O)N[C@@H](CO)C(=O)N[C@@H](CCCCNC(=O)CCCC[C@@H]1SC[C@@H]2NC(=O)N[C@@H]21)C(N)=O)C(C)C [Compound 074]	1.05 nM	90.7	0.43 nM	39.5
CC[C@H](C)[C@H](NC(=O)[C@H](Cc1ccccc1)NC(=O)[C@H](CCC(=O)O)NC(=O)[C@H](CCCNC(=N)N)NC(=O)[C@@H](NC(=O)[C@H](C)NC(=O)[C@H](CCC(=O)O)NC(=O)[C@H](CCCCN)NC(=O)[C@H](CCC(=O)O)NC(=O)[C@H](CCSC)NC(=O)[C@H](Cc1ccc(O)cc1)NC(=O)[C@@H](NC(=O)[C@H](CO)NC(=O)[C@H](Cc1ccc(O)cc1)NC(=O)[C@H](CC(=O)O)NC(=O)[C@H](CO)NC(=O)[C@@H](NC(=O)[C@H](Cc1ccccc1)NC(=O)[C@@H](NC(=O)CNC(=O)[C@H](CCC(=O)O)NC(=O)C(C)(C)NC(=O)[C@@H](N)Cc1ccc(O)cc1)[C@@H](C)O)[C@@H](C)O)[C@@H](C)CC)C(C)C)C(=O)N[C@@H](C)C(=O)N[C@@H](Cc1c[nH]c2ccccc12)C(=O)N[C@@H](CC(C)C)C(=O)N[C@H](C(=O)N[C@@H](CCCCN)C(=O)NCC(=O)N[C@@H](CCCNC(=N)N)C(=O)N[C@@H](CCCNC(=N)N)C(=O)N[C@@H](CCCNC(=N)N)C(=O)N[C@@H](CCCNC(=N)N)C(=O)N[C@@H](CCCNC(=N)N)C(=O)N[C@@H](CCCNC(=N)N)C(N)=O)C(C)C [Compound 075] (H-Y[Aib]EGTFTSDYSIYMEKEAVREFIAWLVKGRRRRRR-NH2; N-terminus assumed)	–	77.7	–	8.3
CC[C@H](C)[C@H](NC(=O)[C@H](Cc1ccccc1)NC(=O)[C@H](CCC(=O)O)NC(=O)[C@H](CCCNC(=N)N)NC(=O)[C@@H](NC(=O)[C@H](C)NC(=O)[C@H](CCC(=O)O)NC(=O)[C@@H]1CCCCNC(=O)CC[C@H](NC(=O)[C@H](CO)NC(=O)[C@H](Cc2ccc(O)cc2)NC(=O)[C@H](CC(=O)O)NC(=O)[C@H](CO)NC(=O)[C@@H](NC(=O)[C@H](Cc2ccccc2)NC(=O)[C@@H](NC(=O)CNC(=O)[C@H](CCC(=O)O)NC(=O)C(C)(C)NC(=O)[C@@H](N)Cc2ccc(O)cc2)[C@@H](C)O)[C@@H](C)O)C(=O)N[C@@H](Cc2ccc(O)cc2)C(=O)N[C@@H](CCSC)C(=O)N[C@@H](CCC(=O)O)C(=O)N1)C(C)C)C(=O)N[C@@H](C)C(=O)N[C@@H](Cc1c[nH]c2ccccc12)C(=O)N[C@@H](CC(C)C)C(=O)N[C@H](C(=O)N[C@@H](CCCCN)C(=O)NCC(=O)NCC(=O)N1CCC[C@H]1C(=O)N[C@@H](CO)C(=O)N[C@@H](CO)C(=O)NCC(=O)N[C@@H](C)C(=O)N1CCC[C@H]1C(=O)N1CCC[C@H]1C(=O)N1CCC[C@H]1C(=O)N[C@@H](CO)C(N)=O)C(C)C [Compound 081] (H-Y[Aib]EGTFTSDYSEYMEKEAVREFIAWLVKGGPSSGAPPPS-NH2; lactam 12-16)	0.77 nM	124.3	0.044 nM	250
CCCCCCCCCCCCCCCC(=O)NCCCC[C@H](NC(=O)CNC(=O)[C@H](CCCCN)NC(=O)[C@@H](NC(=O)[C@H](CC(C)C)NC(=O)[C@H](Cc1c[nH]c2ccccc12)NC(=O)[C@H](C)NC(=O)[C@@H](NC(=O)[C@H](Cc1ccccc1)NC(=O)[C@H](CCC(=O)O)NC(=O)[C@H](CCCNC(=N)N)NC(=O)[C@@H](NC(=O)[C@H](C)NC(=O)[C@H](CCC(=O)O)NC(=O)[C@@H]1CCCCNC(=O)CC[C@H](NC(=O)[C@H](CO)NC(=O)[C@H](Cc2ccc(O)cc2)NC(=O)[C@H](CC(=O)O)NC(=O)[C@H](CO)NC(=O)[C@@H](NC(=O)[C@H](Cc2ccccc2)NC(=O)[C@@H](NC(=O)CNC(=O)[C@H](CCC(=O)O)NC(=O)C(C)(C)NC(=O)[C@@H](N)Cc2ccc(O)cc2)[C@@H](C)O)[C@@H](C)O)C(=O)N[C@@H](Cc2ccc(O)cc2)C(=O)N[C@@H](CCSC)C(=O)N[C@@H](CCC(=O)O)C(=O)N1)C(C)C)[C@@H](C)CC)C(C)C)C(N)=O [Compound 084] (H-Y[Aib]EGTFTSDYSEYMEKEAVREFIAWLVKGK(Palmitoyl)-NH2; lactam 12-16)	–	22.2	–	8.8
